How the values were obtained:
rheumatoid arthritis = conditions: mouse model of rheumatoid arthritis; Merlo et al. 2014; cited from earlier work
melanoma = melanoma cohort, response to therapy by IDO2 genotype; format: in vivo, human
Protocol: In the melanoma cohort, 84 patients were genotyped with 6 patients returning uncertain results. The remaining 78 patients, including 52 males and 26 females, were treated and analyzed in a similar way to the PDAC patients of Example 3 above. The results of the 46 patients, including 31 males and 15 females, in this cohort that responded positively to IDO and/or other indicated therapies were also analyzed.

[1] = tested on: metastatic adenocarcinoma of the pancreas; assay: Phase I/II trial NCT02077881: indoximod with gemcitabine plus nab-paclitaxel, responses by IDO2 genotype; format: in vivo, human; conditions: for PR + CR (positive response), row % / PR + CR, number of patients: + gemcitabine plus nab-paclitaxel
Protocol: The treatment protocol was as described in ClinicalTrials.gov Identifier NCT02077881, which was a Phase I/II trial designed to evaluate the combination of the immunotherapeutic agent indoximod (an IDO inhibitor) and the standard of care chemotherapy gemcitabine plus nab-paclitaxel in subjects with metastatic adenocarcinoma of the pancreas. Participants received oral indoximod (600 mg, […], or 1200 mg according to their assigned dose cohort) twice daily for 28 days concurrently with IV Nab-paclitaxel 125 mg/m^2 given intravenously over 30-40 minutes for 3 weeks (days 1, 8 and 15) with 1 week rest, followed by gemcitabine 1000 mg/m^2 given intravenously over 30 minutes for 3 weeks (days 1, 8 and 15) with 1 week rest. All subjects will receive the standard 28-day gemcitabine plus nab-paclitaxel regimen. Twice daily oral indoximod was administered concurrently in continuous 28 day cycles. Patients continued until they experienced disease progression or significant toxicity.
Genotyping to detect the wild-type IDO2 alleles or a polymorphisms in one or both alleles was performed using a protocol as provided in Example 2.
Two-sample tests of independent proportions were performed to compare the percentage of positive responders between two groups. Observed versus expected genotype distributions were compared using one-sample tests of proportions. The significance level was set to 0.05 and all tests were one-sided except for the tests comparing response by sex and the tests comparing observed and expected genotypes. Analyses were performed in Stata/MP 15.1 (StataCorp LP., Texas, USA). See the data in FIG. 6A -6D.

brain metastases = assay: whole brain radiotherapy with low-dose chloroquine in patients with brain metastases; format: in vivo, human; conditions: low-dose chloroquine in continuous cycles one week before and during standard of care irradiation; N=20; P=0.07
mouse tumor models = conditions: cited from earlier work
[2] = Females, all genotypes, no exclusions, Total 40
[3] = Females, excludes (+/p or p/p) uncertain genotype, Total 32
[4] = Males, all genotypes, no exclusions, Total 67
[5] = Males, excludes (+/p or p/p) uncertain genotype, Total 47
[6] = genotype +/+ or +/p, both sexes, Total 56
[7] = genotype +/+ or +/p, females only, Total 22
[8] = genotype +/+ or +/p, males only, Total 34
[9] = genotype +/+, both sexes, excludes uncertain genotype, Total 15
[10] = genotype +/+, females only, excludes uncertain genotype, Total 7
[11] = genotype +/+, males only, excludes uncertain genotype, Total 8
[12] = genotype +/p, both sexes, excludes uncertain genotype, Total 41
[13] = genotype +/p, females only, excludes uncertain genotype, Total 15
[14] = genotype +/p, males only, excludes uncertain genotype, Total 26
[15] = genotype p/p, both sexes, excludes uncertain genotype, Total 23
[16] = genotype p/p, females only, excludes uncertain genotype, Total 10
[17] = genotype p/p, males only, excludes uncertain genotype, Total 13

## Cn1cc(C[C@H](N)C(=O)O)c2ccccc21 [indoximod, 1-methyl-tryptophan]
Rheumatoid arthritis
  therapeutic responses after deletion of the IDO2 gene: ablate therapeutic responses
melanoma; female cohort, patients with the +/+ or +/p alleles
  more frequent response than the expected population: 41%
melanoma; female patients without the active allele (p/p)
  less frequent response than the expected population: 70%
melanoma; inactive IDO2 genetic configuration, adjuvant radiotherapy including treatment with indoximod
  overall survival: extended overall survival
[1]; [2]
  PR + CR (positive response), row %: 60.0%
  PR + CR, number of patients: 24
[1]; [3]
  PR + CR (positive response), row %: 62.5%
  PR + CR, number of patients: 20
[1]; [4]
  PR + CR (positive response), row %: 43.3%
  PR + CR, number of patients: 29
[1]; [5]
  PR + CR (positive response), row %: 51.1%
  PR + CR, number of patients: 24
[1]; both sexes, excludes (+/p or p/p) uncertain genotype, Total 79
  PR + CR, number of patients: 44
[1]; both sexes, includes uncertain genotype, Total 51
  PR + CR (positive response), row %: 35.3%
[1]; genotype (+/p or p/p) or p/p, both sexes, includes uncertain genotype, Total 51
  PR + CR, number of patients: 18
[1]; genotype (+/p or p/p) or p/p, males only, includes uncertain genotype, Total 33
  PR + CR, number of patients: 9
[1]; [6]
  PR + CR (positive response), row %: 62.5%
  PR + CR, number of patients: 35
[1]; [7]
  PR + CR (positive response), row %: 68.2%
  PR + CR, number of patients: 15
[1]; [8]
  PR + CR (positive response), row %: 58.8%
  PR + CR, number of patients: 20
[1]; [9]
  PR + CR (positive response), row %: 53.3%
  PR + CR, number of patients: 8
[1]; [10]
  PR + CR (positive response), row %: 42.9%
  PR + CR, number of patients: 3
[1]; [11]
  PR + CR (positive response), row %: 62.5%
  PR + CR, number of patients: 5
[1]; [12]
  PR + CR (positive response), row %: 65.9%
  PR + CR, number of patients: 27
[1]; [13]
  PR + CR (positive response), row %: 80.0%
  PR + CR, number of patients: 12
[1]; [14]
  PR + CR (positive response), row %: 57.7%
  PR + CR, number of patients: 15
[1]; [15]
  PR + CR (positive response), row %: 39.1%
  PR + CR, number of patients: 9
[1]; [16]
  PR + CR (positive response), row %: 50.0%
  PR + CR, number of patients: 5
[1]; [17]
  PR + CR (positive response), row %: 30.8%
  PR + CR, number of patients: 4
[1]; males only, includes uncertain genotype, Total 33
  PR + CR (positive response), row %: 27.3%
[1]; whole cohort, both sexes, no exclusions, Total 107
  PR + CR, number of patients: 53
[1]; in combination with gemcitabine in PDAC patients, patients harboring functional IDO2 alleles, initial cohort
  therapeutic responses, outcomes stratified to IDO2 genotype: trend in improved therapeutic responses

## CCN(CC)CCCC(C)Nc1ccnc2cc(Cl)ccc12 (stereo not drawn) [chloroquine]
Brain metastases
  survival outcomes: trend in improvement of survival outcomes

## Cn1cc(CC(N)C(=O)O)c2ccccc21 [D, L-1MT]
Mouse tumor models
  effect on efficacy of radiotherapy: improve the efficacy of radiotherapy

Source: patent US20220364179A1, “METHODS AND COMPOSITIONS FOR ASSESSING AND PREDICTING THERAPEUTIC RESPONSE” (Lankenau Institute for Medical Research, priority 2019, published 2022)
